Source: US20260250272A1, “N-SUBSTITUTED QUINOLINONE COMPOUND, PREPARATION METHOD THEREFOR AND USE THEREOF” (VIGONVITA LIFE SCIENCES CO., LTD., priority 2022, published 2026)
In brackets after ≈: the same amount, converted by molar mass.

Experiment: Oil solubility test in benzyl benzoate (HPLC)
Assay type: physicochemical
Settings: organic solvent or mixture, thermodynamic from solid, 25° C., shaken 2 h
Procedure: The solubility test was performed by quantitative analysis using an external standard method of high-performance liquid chromatography.
Reference sample solution: 10 mg of reference sample was weighed, placed in a 20 mL volumetric flask, diluted to the scale with 80% acetonitrile, and shaken uniformly.
Test sample solution: an appropriate amount of sample was dissolved in benzyl benzoate to obtain a saturated solution. The mixture was placed in a shaker and shaken at 25° C. and 800 rpm for 2 h. The sample solution was filtered, and 100 μL of filtrate was added to a 10 mL volumetric flask, diluted to the scale with 80% acetonitrile, and shaken uniformly.

Structure (SMILES) | solubility at 2 h
CC(C)OC(=O)N1C(=O)CCc2ccc(CCN3CCN(c4cc(F)cc5sccc45)CC3)cc21 [Compound 4] | 25.8 mg/mL (≈ 52 mM)
CCCCCCCCCCCCCCCC(=O)OCn1c(=O)ccc2ccc(CCN3CCN(c4cc(F)cc5sccc45)CC3)cc21 [Compound 9, (7-(2-(4-(6-Fluorobenzo[b]thiophen-4-yl)piperazin-1-yl)ethyl)-2-oxoquinolin-1(2H)-yl)methyl palmitate] | > 200 mg/mL
CCCCCCCCCC(=O)OCn1c(=O)ccc2ccc(CCN3CCN(c4cc(F)cc5sccc45)CC3)cc21 [Compound 10, (7-(2-(4-(6-Fluorobenzo[b]thiophen-4-yl)piperazin-1-yl)ethyl)-2-oxoquinolin-1(2H)-yl)methyl decanoate] | > 200 mg/mL
CCCCCCCCCCCC(=O)OC(C)N1C(=O)CCc2ccc(CCN3CCN(c4cc(F)cc5sccc45)CC3)cc21 (stereo not shown) [Compound 13, 1-(7-(2-(4-(6-Fluorobenzo[b]thiophen-4-yl)piperazin-1-yl)ethyl)-2-oxo-3,4-dihydroquinolin-1(2H)-yl)ethyl dodecanoate] | > 200 mg/mL
CCCCCCCCCCCCCCCC(=O)OC(C)N1C(=O)CCc2ccc(CCN3CCN(c4cc(F)cc5sccc45)CC3)cc21 (stereo not shown) [Compound 15, 1-(7-(2-(4-(6-Fluorobenzo[b]thiophen-4-yl)piperazin-1-yl)ethyl)-2-oxo-3,4-dihydroquinolin-1(2H)-yl) ethyl palmitate] | > 200 mg/mL
CCCCCCCOC(=O)OCN1C(=O)CCc2ccc(CCN3CCN(c4cc(F)cc5sccc45)CC3)cc21 [Compound 25, (7-(2-(4-(6-Fluorobenzo[b]thiophen-4-yl)piperazin-1-yl)ethyl)-2-oxo-3,4-dihydroquinolin-1(2H)-yl) methyl heptyl carbonate] | > 200 mg/mL
CCCCCCCCCCCCOC(=O)OCN1C(=O)CCc2ccc(CCN3CCN(c4cc(F)cc5sccc45)CC3)cc21 [Compound 29, Dodecyl ((7-(2-(4-(6-fluorobenzo[b]thiophen-4-yl)piperazin-1-yl)ethyl)-2-oxo-3,4-dihydroquinolin-1(2H)-yl)methyl) carbonate] | > 200 mg/mL
CCCCCCCCCCCCCCOC(=O)OCN1C(=O)CCc2ccc(CCN3CCN(c4cc(F)cc5sccc45)CC3)cc21 [Compound 30, (7-(2-(4-(6-Fluorobenzo[b]thiophen-4-yl)piperazin-1-yl)ethyl)-2-oxo-3,4-dihydroquinolin-1(2H)-yl) methyl tetradecyl carbonate] | > 200 mg/mL
CCCCCCCCCCCCCCCCOC(=O)OCN1C(=O)CCc2ccc(CCN3CCN(c4cc(F)cc5sccc45)CC3)cc21 [Compound 31, (7-(2-(4-(6-Fluorobenzo[b]thiophen-4-yl)piperazin-1-yl)ethyl)-2-oxo-3,4-dihydroquinolin-1(2H)-yl)methyl hexadecyl carbonate] | > 200 mg/mL

The next lines start with the values.

solubility at 2 h | Structure (SMILES)
> 200 mg/mL | CCCCCCCCCCCOC(=O)OCN1C(=O)CCc2ccc(CCN3CCN(c4cc(F)cc5sccc45)CC3)cc21 [Compound 14, (7-(2-(4-(6-Fluorobenzo[b]thiophen-4-yl)piperazin-1-yl)ethyl)-2-oxo-3,4-dihydroquinolin-1(2H)-yl) methyl undecyl carbonate]
> 200 mg/mL | CCCCCCCCOC(=O)OCN1C(=O)CCc2ccc(CCN3CCN(c4cc(F)cc5sccc45)CC3)cc21 [Compound 26, (7-(2-(4-(6-Fluorobenzo[b]thiophen-4-yl)piperazin-1-yl)ethyl)-2-oxo-3,4-dihydroquinolin-1(2H)-yl) methyl octyl carbonate]
> 200 mg/mL | CCCCCCCCCOC(=O)OCN1C(=O)CCc2ccc(CCN3CCN(c4cc(F)cc5sccc45)CC3)cc21 [Compound 27, (7-(2-(4-(6-Fluorobenzo[b]thiophen-4-yl)piperazin-1-yl)ethyl)-2-oxo-3,4-dihydroquinolin-1(2H)-yl) methyl nonyl carbonate]
> 200 mg/mL | CCCCCCCCCCOC(=O)OCN1C(=O)CCc2ccc(CCN3CCN(c4cc(F)cc5sccc45)CC3)cc21 [Compound 28, Decyl ((7-(2-(4-(6-fluorobenzo[b]thiophen-4-yl)piperazin-1-yl)ethyl)-2-oxo-3,4-dihydroquinolin-1(2H)-yl)methyl) carbonate]
